Results from ChEMBL document CHEMBL4196016, “Regioselective synthesis of 7-O-esters of the flavonolignan silibinin and SARs lead to compounds with overadditive neuroprotective effects” (Eur J Med Chem, 2018).
The source made the active and inactive calls. The calls are words filed in the database; no cut-off is given here.

Tests used:
[1] = Antioxidant activity assessed as reduction of Fe3+-TPTZ to Fe2+-TPTZ measured every 15 secs for 4 mins by FRAP assay; type: functional
[2] = system: HT-22; experiment: Neuroprotective activity against glutamate-induced mouse HT22 cells assessed as increase in cell survival at 25 uM cotreated with glutamate measured after 24 hrs by MTT assay; type: functional, cell-based
[3] = Antioxidant activity assessed as ferric ion reduction by measuring FeSO4 equivalents reducing Fe3+-TPTZ to Fe2+-TPTZ measured every 15 secs for 4 mins by FRAP assay; type: functional
[4] = system: PC-12; experiment: Induction of rat PC12 cells differentiation assessed as neurite outgrowth at 10 uM after 24 hrs relative to control; type: functional
[5] = system: HT-22; experiment: Neuroprotective activity against glutamate-induced mouse HT22 cells assessed as increase in cell survival at 10 uM cotreated with glutamate measured after 24 hrs by MTT assay; type: functional, cell-based
[6] = system: HT-22; experiment: Neurotoxicity against mouse HT22 cells assessed as decrease in cell viability at 10 uM measured after 24 hrs by MTT assay; type: toxicity, cell-based; conditions: ht-22, 24 h
[7] = target: T1, Amyloid-beta precursor protein (Homo sapiens, UniProt P05067); experiment: Inhibition of amyloid beta 42 (unknown origin) expressed in Escherichia coli BL21 (DE3) aggregation at 10 uM incubated for overnight by Th-S fluorescence staining based UV-Vis spectrophotometer (reference value: 0 +/- 1%)
T1 sequence (P05067 whole entry): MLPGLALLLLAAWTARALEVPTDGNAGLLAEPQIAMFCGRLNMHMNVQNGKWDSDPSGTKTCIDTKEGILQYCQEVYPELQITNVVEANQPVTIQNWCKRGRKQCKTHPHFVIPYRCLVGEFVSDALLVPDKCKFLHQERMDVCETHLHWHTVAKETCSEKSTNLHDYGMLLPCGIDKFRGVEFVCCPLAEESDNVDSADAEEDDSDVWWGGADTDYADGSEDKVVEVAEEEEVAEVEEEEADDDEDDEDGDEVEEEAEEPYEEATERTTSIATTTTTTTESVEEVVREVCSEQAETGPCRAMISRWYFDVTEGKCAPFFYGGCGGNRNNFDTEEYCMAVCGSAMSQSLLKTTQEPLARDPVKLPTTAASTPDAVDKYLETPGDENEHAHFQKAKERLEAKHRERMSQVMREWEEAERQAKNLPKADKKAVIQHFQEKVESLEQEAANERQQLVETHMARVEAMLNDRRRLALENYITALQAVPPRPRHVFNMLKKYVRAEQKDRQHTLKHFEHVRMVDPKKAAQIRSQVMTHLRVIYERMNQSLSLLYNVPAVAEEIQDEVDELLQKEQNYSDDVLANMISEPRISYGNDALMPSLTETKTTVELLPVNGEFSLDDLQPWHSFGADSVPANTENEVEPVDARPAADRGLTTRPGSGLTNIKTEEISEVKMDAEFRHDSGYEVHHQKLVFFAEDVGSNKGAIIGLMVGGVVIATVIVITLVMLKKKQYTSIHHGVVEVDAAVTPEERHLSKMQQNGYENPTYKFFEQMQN

[8] = target: T1, Amyloid-beta precursor protein; experiment: Inhibition of amyloid beta 42 (unknown origin) expressed in Escherichia coli BL21 (DE3) aggregation at 100 uM incubated for overnight by Th-S fluorescence staining based UV-Vis spectrophotometer (reference value: 0 +/- 4.4%)
[9] = target: T1, Amyloid-beta precursor protein; experiment: Inhibition of amyloid beta 42 (unknown origin) expressed in Escherichia coli BL21 (DE3) aggregation incubated for overnight by Th-S fluorescence staining based UV-Vis spectrophotometer
[10] = target: T2, Microtubule-associated protein tau (Homo sapiens, UniProt P10636); experiment: Inhibition of tau (unknown origin) aggregation expressed in Escherichia coli (DE3) at 10 uM incubated for overnight by Th-S fluorescence staining based UV-Vis spectrophotometer (reference value: 0.0 +/- 1.4%)
T2 sequence (P10636 whole entry): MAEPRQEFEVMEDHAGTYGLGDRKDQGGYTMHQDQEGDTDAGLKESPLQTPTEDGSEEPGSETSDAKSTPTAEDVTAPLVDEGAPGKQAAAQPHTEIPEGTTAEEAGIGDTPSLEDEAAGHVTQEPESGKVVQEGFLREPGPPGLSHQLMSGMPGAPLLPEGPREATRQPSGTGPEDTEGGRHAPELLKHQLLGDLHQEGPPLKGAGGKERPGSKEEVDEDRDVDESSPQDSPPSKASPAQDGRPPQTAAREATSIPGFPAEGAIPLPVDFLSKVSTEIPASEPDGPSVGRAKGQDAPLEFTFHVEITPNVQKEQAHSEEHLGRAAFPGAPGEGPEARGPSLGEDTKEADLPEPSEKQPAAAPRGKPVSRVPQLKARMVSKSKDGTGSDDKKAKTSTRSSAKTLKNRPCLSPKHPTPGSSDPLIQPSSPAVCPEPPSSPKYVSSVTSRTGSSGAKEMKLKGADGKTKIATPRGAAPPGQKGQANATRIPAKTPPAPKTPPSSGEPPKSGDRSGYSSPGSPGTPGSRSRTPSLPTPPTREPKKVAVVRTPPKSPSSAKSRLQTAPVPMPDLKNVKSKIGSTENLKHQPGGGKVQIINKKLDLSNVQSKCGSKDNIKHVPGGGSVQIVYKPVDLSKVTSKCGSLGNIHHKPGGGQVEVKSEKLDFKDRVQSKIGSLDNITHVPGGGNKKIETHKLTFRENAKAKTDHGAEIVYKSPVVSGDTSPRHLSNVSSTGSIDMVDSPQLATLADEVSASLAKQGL

[11] = target: T2, Microtubule-associated protein tau; experiment: Inhibition of tau (unknown origin) aggregation expressed in Escherichia coli (DE3) at 100 uM incubated for overnight by Th-S fluorescence staining based UV-Vis spectrophotometer (reference value: 0.0 +/- 2.4%)
[12] = target: T2, Microtubule-associated protein tau; experiment: Inhibition of tau (unknown origin) aggregation expressed in Escherichia coli (DE3) incubated for overnight by Th-S fluorescence staining based UV-Vis spectrophotometer
[13] = system: HT-22; experiment: Neuroprotective activity against IAA-induced ischemia in mouse HT22 cells assessed as increase in cell viability cotreated with IAA for 2 hrs followed by IAA wash out measured after 24 hrs by MTT assay; type: functional, cell-based
[14] = system: BV-2; experiment: Antiinflammatory activity in mouse BV2 cells assessed as inhibition of LPS-induced microglial activation after 24 hrs by Griess reagent based assay; type: functional, cell-based; conditions: BV-2, 24 h
[15] = system: HT-22; experiment: Neuroprotective activity against glutamate-induced mouse HT22 cells assessed as cell survival at 25 uM cotreated with glutamate measured after 24 hrs by MTT assay relative to control; type: functional
[16] = system: HT-22; experiment: Neurotoxicity against mouse HT22 cells assessed as decrease in cell viability at 25 uM measured after 24 hrs by MTT assay; type: toxicity, cell-based; conditions: ht-22, 24 h
[17] = Antioxidant activity assessed as reduction of Fe3+-TPTZ to Fe2+-TPTZ using 1:1 test compound to silibinin ratio measured every 15 secs for 4 mins by FRAP assay; type: functional
[18] = system: HT-22; experiment: Neurotoxicity against mouse HT22 cells assessed as decrease in cell viability at 25 uM using 1:1 test compound to silibinin ratio measured after 24 hrs by MTT assay; type: toxicity, cell-based; conditions: ht-22, 24 h
[19] = system: HT-22; experiment: Neuroprotective activity against glutamate-induced mouse HT22 cells assessed as increase in cell survival at 1 to 25 uM cotreated with glutamate measured after 24 hrs by MTT assay; type: functional, cell-based
[20] = system: HT-22; experiment: Neuroprotective activity against glutamate-induced mouse HT22 cells assessed as increase in cell survival at 1 to 25 uM using 1:1 test compound to silibinin ratio cotreated with glutamate measured after 24 hrs by MTT assay; type: functional, cell-based
[21] = system: HT-22; experiment: Neuroprotective activity against glutamate-induced mouse HT22 cells assessed as increase in cell survival at 25 to 50 uM cotreated with glutamate measured after 24 hrs by MTT assay; type: functional, cell-based
[22] = Antioxidant activity assessed as reduction of Fe3+-TPTZ to Fe2+-TPTZ using equimolar mixture of test compound and silibinin measured every 15 secs for 4 mins by FRAP assay; type: functional
[23] = system: HT-22; experiment: Neuroprotective activity against glutamate-induced mouse HT22 cells assessed as cell survival at 10 to 25 uM cotreated with glutamate measured after 24 hrs by MTT assay relative to control; type: functional
[24] = Stability of the compound in assay medium at 50 uM by LCMS analysis; type: physicochemical; conditions: TDE = time-dependent effect
[25] = Stability of the compound in assay medium at 50 uM after 24 hrs by LCMS analysis; type: physicochemical; conditions: read-out: Stability
[26] = Metabolic stability of the compound in human pooled plasma at 50 uM by LCMS analysis; type: ADME, cell-free; conditions: TDE = time-dependent effect
[27] = Metabolic stability of the compound in human pooled plasma assessed as compound remaining at 50 uM after 4 hrs by LCMS analysis; type: ADME, cell-free; conditions: read-out: Stability
[28] = Half life in human pooled plasma at 50 uM up to 24 hrs by LCMS analysis; type: ADME, cell-free
[29] = Drug metabolism in human pooled plasma assessed as 7-Oferuloyl-2,3-dehydrosilibinin formation at 50 uM up to 24 hrs by LCMS analysis; type: ADME, cell-free
[30] = Drug metabolism in human pooled plasma assessed as cleavage of ester bond at 50 uM up to 24 hrs by LCMS analysis; type: ADME, cell-free
[31] = system: HT-22; experiment: Neuroprotective activity against glutamate-induced mouse HT22 cells assessed as increase in cell survival at 5 to 25 uM cotreated with glutamate measured after 24 hrs by MTT assay; type: functional, cell-based

Compound: COc1cc(C(=O)Oc2cc(O)c3c(c2)O[C@H](c2ccc4c(c2)OC(c2ccc(O)c(OC)c2)C(CO)O4)[C@@H](O)C3=O)ccc1O (stereo partly specified)
- Activity [1]: Active
- Activity [2]: Active

Compound: O=C1O[C@H]([C@@H](O)CO)C(O)=C1O
- Activity [3]: 2 equiv

Compound: COc1cc(/C=C/C(=O)Oc2cc(O)c3c(c2)O[C@H](c2ccc4c(c2)O[C@@H](c2ccc(O)c(OC)c2)[C@H](CO)O4)[C@@H](O)C3=O)ccc1O
- Activity [4]: 67%
- Activity [5]: Active
- Activity [6]: Toxic
- inhibition [7]: 14.2%
- inhibition [8]: 73%
- IC50 [9]: 43.6 µM
- inhibition [10]: 44.5%
- inhibition [11]: 84%
- IC50 [12]: 12.9 µM
- EC50 [13]: 2200 nM
- EC50 [14]: 10.1 µM
- Activity [1]: Active

Compound: O=c1c(O)c(-c2ccc(O)c(O)c2)oc2cc(O)cc(O)c12 [QUERCETIN]
- Survival [15]: 80%

Compound: COc1cc(/C=C/C(=O)Oc2cc(O)c3c(c2)O[C@H](c2ccc4c(c2)O[C@H](c2ccc(O)c(OC)c2)[C@@H](CO)O4)[C@@H](O)C3=O)ccc1O
- Activity [4]: 50%
- Activity [6]: Toxic
- inhibition [7]: 13.2%
- inhibition [8]: 52.7%
- IC50 [9]: 85.5 µM
- inhibition [10]: 36.8%
- inhibition [11]: 67.2%
- IC50 [12]: 27.2 µM
- EC50 [13]: 1400 nM
- EC50 [14]: 9.8 µM
- Activity [1]: Active

Compound: COc1cc(/C=C/C(=O)O)ccc1O [FERULATE]
- Activity [4]: inactive
- Activity [16]: Non-Toxic
- EC50 [13]: > 10000 nM
- EC50 [14]: > 10 µM
- Activity [17]: Active
- Activity [1]: Active
- Activity [18]: Toxic
- Activity [19]: inactive
- Activity [20]: inactive

Compound: COc1cc(C2Oc3cc([C@H]4Oc5cc(OC(=O)/C=C/c6ccc7c(c6)OC(C)(C)O7)cc(O)c5C(=O)[C@@H]4O)ccc3OC2CO)ccc1O (stereo partly specified)
- Activity [21]: Active
- Activity [5]: Active
- Activity [1]: inactive
- Activity [2]: inactive

Compound: COc1cc(CCC(=O)Oc2cc(O)c3c(c2)O[C@H](c2ccc4c(c2)OC(c2ccc(O)c(OC)c2)C(CO)O4)[C@@H](O)C3=O)ccc1O (stereo partly specified)
- Activity [21]: inactive
- Activity [1]: Active

Compound: O=C(O)/C=C/c1ccccc1 [CINNAMIC ACID]
- Activity [4]: inactive
- EC50 [13]: > 10000 nM
- EC50 [14]: > 10 µM
- Activity [1]: inactive
- Activity [22]: Active
- Activity [18]: Toxic

Compound: COc1cc(/C=C/C(=O)Oc2cc(O)c3c(c2)O[C@H](c2ccc4c(c2)OC(c2ccc(O)c(OC)c2)C(CO)O4)[C@@H](O)C3=O)ccc1O (stereo partly specified)
- Activity [4]: 47%
- Activity [16]: Toxic
- Survival [23]: 50%
- inhibition [7]: 16.8%
- inhibition [8]: 54.4%
- inhibition [10]: 30.4%
- inhibition [11]: 64.7%
- EC50 [13]: > 10000 nM
- EC50 [14]: 6.5 µM
- Stability [24]: Tde
- remaining at 24 h, 50 µM [25]: 25%
- Stability [26]: Tde
- remaining at 4 h, 50 µM [27]: 20%
- half-life at 50 µM [28]: 90 min
- Drug metabolism [29]: Metabolite_Notdetected
- Drug metabolism [30]: Metabolite_Detected
- Activity [1]: Active

Compound: COc1cc(C2Oc3cc([C@H]4Oc5cc(O)cc(O)c5C(=O)[C@@H]4O)ccc3OC2COC(=O)/C=C/c2ccccc2)ccc1O (stereo partly specified)
- Activity [5]: inactive
- Activity [2]: Active

Compound: COc1cc(C2Oc3cc([C@H]4Oc5cc(OC(=O)c6ccc7c(c6)OC(C)(C)O7)cc(O)c5C(=O)[C@@H]4O)ccc3OC2CO)ccc1O (stereo partly specified)
- Activity [5]: Active
- Activity [1]: inactive
- Activity [2]: inactive

Compound: COc1cc(C2Oc3cc([C@H]4Oc5cc(OC(=O)/C=C/c6cc(OC)c(O)c(OC)c6)cc(O)c5C(=O)[C@@H]4O)ccc3OC2CO)ccc1O (stereo partly specified)
- Activity [21]: Active
- Activity [1]: Active

Compound: COc1cc(C2Oc3cc([C@H]4Oc5cc(OC(=O)CCc6ccc7c(c6)OC(C)(C)O7)cc(O)c5C(=O)[C@@H]4O)ccc3OC2CO)ccc1O (stereo partly specified)
- Activity [21]: inactive
- Activity [1]: inactive

Compound: COc1cc(C2Oc3cc([C@H]4Oc5cc(OC(=O)/C=C/c6ccccc6)cc(O)c5C(=O)[C@@H]4O)ccc3OC2CO)ccc1O (stereo partly specified)
- Activity [4]: 40%
- Activity [21]: Active
- Activity [16]: Non-Toxic
- Activity [5]: Active
- Activity [31]: Active
- inhibition [7]: 17.1%
- inhibition [8]: 61.1%
- inhibition [10]: 37.1%
- inhibition [11]: 76.1%
- EC50 [13]: 1500 nM
- EC50 [14]: 4.2 µM
- Activity [1]: inactive
- Activity [2]: inactive

Compound: COc1cc(C2Oc3cc([C@H]4Oc5cc(OC(=O)CCc6cc(OC)c(O)c(OC)c6)cc(O)c5C(=O)[C@@H]4O)ccc3OC2CO)ccc1O (stereo partly specified)
- Activity [21]: inactive
- Activity [1]: Active

Compound: Cc1c(C)c2c(c(C)c1O)CCC(C)(C(=O)O)O2 (stereo unspecified)
- Activity [3]: 1.8 equiv

Compound: COc1cc(C2Oc3cc([C@H]4Oc5cc(OC(=O)c6cc(OC)c(O)c(OC)c6)cc(O)c5C(=O)[C@@H]4O)ccc3OC2CO)ccc1O (stereo partly specified)
- Activity [1]: Active
- Activity [2]: Active

Compound: COc1cc(C2Oc3cc([C@H]4Oc5cc(OC(=O)CCc6ccccc6)cc(O)c5C(=O)[C@@H]4O)ccc3OC2CO)ccc1O (stereo partly specified)
- Activity [21]: inactive
- Activity [1]: inactive

Compound: COc1cc(C2Oc3cc([C@H]4Oc5cc(OC(=O)c6ccccc6)cc(O)c5C(=O)[C@@H]4O)ccc3OC2CO)ccc1O (stereo partly specified)
- Activity [1]: inactive
- Activity [2]: inactive
